≈ marks a conversion by molar mass, not a printed value. Like-named read-outs stand apart in the source and are kept apart here.
Legend:
Assay type in all cases: cell-based
[1] = tested on: Streptococcus pyogenes ATCC19615; conditions: rifS, THY Broth, 37° C., read-out: Antimicrobial activity (MIC)
[2] = tested on: Streptococcus pneumoniae ATCC6303; conditions: rifS, THY Broth with 1 mg/mL catalase, 5% CO2, 37° C., read-out: Antimicrobial activity (MIC)
[3] = tested on: Staphylococcus aureus EN1252a gvrA^S84L grlA^S80F; assay: microbe, parasite or virus in culture; conditions: read-out: Antimicrobial activity (MIC)
Protocol: (§1) Representative compounds were assayed for antimicrobial activity as follows: Minimum Inhibitory Concentrations (“MICs”) were determined by the microbroth dilution method as per NCCLS guidelines (National Committee for Clinical Laboratory Standards. 2000. Methods for dilution antimicrobial susceptibility tests for bacteria that grow aerobically, 5th ed. M7-A5. National Committee for Clinical Laboratory Standards, Wayne, Pa.), except that all growth incubations were conducted at 37° C. Bacterial cultures were tested in the following bacteriological media: S. aureus, S. epidermidis, and E. coli in Cation-Adjusted Mueller-Hinton Broth, S. pneumoniae in THY Broth supplemented with 1 mg/mL catalase under 5% CO2 atmosphere, S. pyogenes in THY Broth, E. faecalis in BHI Broth, H. influenzae in BHI Broth supplemented with 0.75 μL of 1 mg/mL NAD and 150 μL of 1 mg/ml hematin per 5 mL, and M. smegmatis in Middlebrook Broth plus ADC Enrichment.
S. aureus EN1252a gyrA^S84L grlA^S80F is a quinolone-resistant strain due to double mutations to the genes confer DNA gyrase and topoisomerase IV.

[4] = tested on: Haemophilus influenzae ATCC10211; conditions: rifS, BHI Broth with NAD and hematin, 37° C., read-out: Antimicrobial activity (MIC)
[5] = MIC, microbroth dilution, panel of rifampin-susceptible Gram-positive strains; conditions: across the five rifampin-susceptible Gram-positive strains
Protocol: as §1
S. aureus ATCC […], S. epidermidis ATCC 12228, S. pneumoniae ATCC6303, S. pyogenes ATCC 19615 and E. faecalis ATCC 29212 are rifampin-susceptible Gram-positive strains. […] The compounds of the current invention show further improved activity against these strains with MICs as low as 0.0005 μg/ml.

[6] = tested on: Enterococcus faecalis ATCC29212; conditions: rifS, BHI Broth, 37° C., read-out: Antimicrobial activity (MIC)
[7] = cipR, Cation-Adjusted Mueller-Hinton Broth, 37° C.

## CO[C@H]1/C=C/O[C@@]2(C)Oc3c(C)c(O)c4c(O)c(c(/C=N/N5CCN(C)CC5)c(O)c4c3C2=O)NC(=O)/C(C)=C\C=C\[C@H](C)[C@H](O)[C@@H](C)[C@@H](O)[C@@H](C)[C@H](OC(C)=O)[C@@H]1C [rifampin, reference compound]
[1]
  MIC: 13 ng/mL (≈ 15.8 nM)
[2]
  MIC: 61 ng/mL (≈ 74.1 nM)
[3]
  MIC: 4 ng/mL (≈ 4.86 nM)
[4]
  MIC: 240 ng/mL (≈ 292 nM)
[5]
  MIC: 13 to 1000 ng/mL (≈ 15.8 to 1220 nM)
[6]
  MIC: 1000 ng/mL (≈ 1220 nM)

## CO[C@H]1/C=C/O[C@@]2(C)Oc3c(C)c(O)c4c(=O)c(c5oc6cc(N7CCN(CC8CCCCC8)CC7)cc(O)c6nc-5c4c3/C2=N/O)NC(=O)/C(C)=C\C=C\[C@H](C)[C@H](O)[C@@H](C)[C@@H](O)[C@@H](C)[C@H](OC(C)=O)[C@@H]1C [Example 11, 11-Deoxy-11-hydroxyimino-1′,4-didehydro-1-deoxy-1,4-dihydro-3′-hydroxy-5′-(4-cyclohexylmethyl-1-piperazinyl)-1-oxo-rifamycin VIII]
[2]
  MIC: 0.06 to 31 ng/mL (≈ 0.0602 to 31.1 nM)
[3]; [7]
  MIC: 0.5 to 125 ng/mL (≈ 0.502 to 125 nM)
[4]
  MIC: 125 to 8000 ng/mL (≈ 125 to 8030 nM)
[6]
  MIC: 500 to 31200 ng/mL (≈ 502 to 31400 nM)

## CCCCN1CCN(c2cc(O)c3nc4c5c6c7c(C)c(O)c5c(=O)c(c-4oc3c2)NC(=O)/C(C)=C\C=C\[C@H](C)[C@H](O)[C@@H](C)[C@@H](O)[C@@H](C)[C@H](OC(C)=O)[C@H](C)[C@@H](OC)/C=C/O[C@@](C)(O7)/C6=N\O)CC1 [Example 10, 11-Deoxy-11-hydroxyimino-1′,4-didehydro-1-deoxy-1,4-dihydro-3′-hydroxy-5′-(4-butyl-1-piperazinyl)-1-oxo-rifamycin VIII]
[2]
  MIC: 0.06 to 31 ng/mL (≈ 0.0628 to 32.4 nM)
[3]; [7]
  MIC: 0.5 to 125 ng/mL (≈ 0.523 to 131 nM)
[4]
  MIC: 125 to 8000 ng/mL (≈ 131 to 8370 nM)
[6]
  MIC: 500 to 31200 ng/mL (≈ 523 to 32700 nM)

## CO[C@H]1/C=C/O[C@@]2(C)Oc3c(C)c(O)c4c(=O)c(c5oc6cc(N7CCOCC7)cc(O)c6nc-5c4c3/C2=N/O)NC(=O)/C(C)=C\C=C\[C@H](C)[C@H](O)[C@@H](C)[C@@H](O)[C@@H](C)[C@H](OC(C)=O)[C@@H]1C [Example 6, 11-Deoxy-11-hydroxyimino-1′,4-didehydro-1-deoxy-1,4-dihydro-3′-hydroxy-5′-(morpholin-4-yl)-1-oxo-rifamycin VIII]
[2]
  MIC: 0.06 to 31 ng/mL (≈ 0.0666 to 34.4 nM)
[3]; [7]
  MIC: 0.5 to 125 ng/mL (≈ 0.555 to 139 nM)
[4]
  MIC: 125 to 8000 ng/mL (≈ 139 to 8880 nM)
[6]
  MIC: 500 to 31200 ng/mL (≈ 555 to 34700 nM)

## COc1c(N2CCN(C(=O)CO/N=C3/c4c5c(C)c(O)c6c4C4=NC7(CCN(CC(C)C)CC7)NC4=C(NC(=O)/C(C)=C\C=C\[C@H](C)[C@H](O)[C@@H](C)[C@@H](O)[C@@H](C)[C@H](OC(C)=O)[C@H](C)[C@@H](OC)/C=C/O[C@@]3(C)O5)C6=O)C(C)C2)c(F)cc2c(=O)c(C(=O)O)cn(C3CC3)c12 (stereo partly drawn) [Example 22, 11-Deoxy-11-{2-oxo-2-[2-methyl4-(3-carboxy-1-cyclopropl-2-methoxy-6-fluoro-4-oxo-1,4-dihydroquinolin-7-yl)piperazin-1-yl]ethoxyimino}-1′,4-didehydro-1-deoxy-1,4-dihydro-5′-(2-methylpropyl)-1-oxo-rifamycin XIV]
[2]
  MIC: 0.06 to 31 ng/mL (≈ 0.047 to 24.3 nM)
[3]; [7]
  MIC: 0.5 to 125 ng/mL (≈ 0.391 to 97.9 nM)
[4]
  MIC: 125 to 8000 ng/mL (≈ 97.9 to 6260 nM)
[6]
  MIC: 500 to 31200 ng/mL (≈ 391 to 24500 nM)

## CO[C@H]1/C=C/O[C@@]2(C)Oc3c(C)c(O)c4c(=O)c(c5oc6cc(N7CC[C@@H](N)C7)cc(O)c6nc-5c4c3/C2=N/O)NC(=O)/C(C)=C\C=C\[C@H](C)[C@H](O)[C@@H](C)[C@@H](O)[C@@H](C)[C@H](OC(C)=O)[C@@H]1C [Example 15, 11-Deoxy-11-hydroxyimino-1′,4-didehydro-1-deoxy-1,4-dihydro-3′-hydroxy-5′-(3-amino-pyrrolidin-1-yl)-1-oxo-rifamycin VIII]
[2]
  MIC: 0.06 to 31 ng/mL (≈ 0.0667 to 34.4 nM)
[3]; [7]
  MIC: 0.5 to 125 ng/mL (≈ 0.556 to 139 nM)
[4]
  MIC: 125 to 8000 ng/mL (≈ 139 to 8890 nM)
[6]
  MIC: 500 to 31200 ng/mL (≈ 556 to 34700 nM)

## CO[C@H]1/C=C/O[C@@]2(C)Oc3c(C)c(O)c4c(=O)c(c5oc6cc(N7CC(C)NC(C)C7)cc(O)c6nc-5c4c3/C2=N/O)NC(=O)/C(C)=C\C=C\[C@H](C)[C@H](O)[C@@H](C)[C@@H](O)[C@@H](C)[C@H](OC(C)=O)[C@@H]1C (stereo partly drawn) [Example 14, 11-Deoxy-11-hydroxyimino-1′,4-didehydro-1-deoxy-1,4-dihydro-3′-hydroxy-5′-(3,5-dimethyl-1-piperazinyl)-1-oxo-rifamycin VIII]
[2]
  MIC: 0.06 to 31 ng/mL (≈ 0.0647 to 33.4 nM)
[3]; [7]
  MIC: 0.5 to 125 ng/mL (≈ 0.539 to 135 nM)
[4]
  MIC: 125 to 8000 ng/mL (≈ 135 to 8620 nM)
[6]
  MIC: 500 to 31200 ng/mL (≈ 539 to 33700 nM)

Reference: patent US7265107B2, “Rifamycin C-11 oxime cyclo derivatives effective against drug-resistant microbes” (Cumbre Pharmaceuticals Inc., priority 2004, dated 2007)
